Reference: patent US6906205B2, “Spiro and dispiro 1,2,4-trioxolane antimalarials” (Medicines for Malaria Venture MMV, priority 2002, dated 2005)
Values after ≈ are worked out from the molar mass of the structure shown.

Columns and labels:
[1] = test system: P. falciparum NF54 strain (sensitive to standard antimalarials); experiment: semiautomated microdilution assay, [3H]-hypoxanthine incorporation, NF54 strain; assay type: cell-based, Plasmodium falciparum; details: NF54 strain, 72 h incubation
In short: (§1)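 Compounds were tested against intraerythrocytic parasites taken from asynchronous stock cultures, using semiautomated microdilution. IC50 values were estimated by logit regression analysis.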

[2] = test system: P. falciparum K1 strain (Thailand resistant to chloroquine); experiment: semiautomated microdilution assay, [3H]-hypoxanthine incorporation, K1 strain; assay type: cell-based, Plasmodium falciparum; details: K1 strain, 72 h incubation
In short: as §1

[3] = test system: ANKA strain of P. berghei; experiment: single dose STI in vivo screen in infected mice; set-up: species or system Plasmodium berghei; details: for Activity (%) po / Activity (%) sc / Activity (%) SSVpo / Activity (%) 3 mg/kg SSV po / Activity (%) 10 mg/kg SSV po: percent reduction in parasitemia day 3 post-infection; for Activity (%) po / Survival (days) po: single 10 mg/kg po in 3% ethanol and 7% Tween 80; for Activity (%) po / Activity (%) sc / Activity (%) SSVpo: mice; for Activity (%) sc / Survival (days) sc: single 10 mg/kg sc in 3% ethanol and 7% Tween 80; for Activity (%) SSVpo: single po dose in standard suspending vehicle (SSV); for Survival (days) po / Survival (days) sc / Survival (days) SSVpo: untreated control 5.6 ± 0.3; for Survival (days) SSVpo: single po dose in SSV; for Activity (%) 3 mg/kg SSV po / Survival (days) 3 mg/kg SSV po: single 3 mg/kg po in SSV; for Activity (%) 10 mg/kg SSV po / Survival (days) 10 mg/kg SSV po: single 10 mg/kg po in SSV
In short: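 Groups of 3-5 Moro SPF or NMRI mice infected with the ANKA strain of P. berghei received a single dose of trioxolane on day one post-infection. The compound was given in 3% ethanol and 7% Tween 80 or in SSV (0.5% w/v CMC, 0.5% v/v benzyl alcohol, 0.4% v/v Tween 80, 0.9% w/v sodium chloride in water). Antimalarial activity was scored as percent reduction in parasitemia on day three and as survival time versus untreated controls. Survival to day 30 counted as cure.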

[4] = test system: Schistosoma mansoni adult schistosomes (49-day-old); experiment: effect on adult schistosomes (49-day-old) in mice; assay type: in vivo; details: single 400 mg/kg per os
Experimental: Mice were infected with 100 Schistosoma mansoni cercariae […]. Each group was treated per os with OZ compounds at single doses of 200, 400, and 600 mg/kg. […] All groups were killed 4 weeks after treatment and the liver and intestine were removed and separated. The liver and intestine were compressed and alive male and female worms could be seen and counted.

SMILES	IC50 (ng/ml) NF54 [1]	IC50 (ng/ml) K1 [2]	Activity (%) po [3]	Activity (%) sc [3]	Activity (%) SSVpo [3]	Survival (days) po [3]	Survival (days) sc [3]	Survival (days) SSVpo [3]	% reduction of adult worms growth at day 49 after per os application of 400 mg/kg, TWR (%) [4]	adult worms at day 49, per os 400 mg/kg, DEAD WORM (%) [4]	Activity (%) po ([3]; 10 mg/kg)	Activity (%) sc ([3]; 10 mg/kg)	Survival (days) po ([3]; 10 mg/kg)	Survival (days) sc ([3]; 10 mg/kg)	Activity (%) 3 mg/kg SSV po [3]	Activity (%) 10 mg/kg SSV po [3]	Survival (days) 10 mg/kg SSV po [3]	Survival (days) 3 mg/kg SSV po [3]
Clc1ccc(C2(c3ccc(Cl)cc3)OOC3(O2)C2CC4CC(C2)CC3C4)cc1 (centres unmarked) [OZ43]	7.5 ng/mL (≈ 18 nM)	11 ng/mL (≈ 26.4 nM)	99.97%	97%	18%	8.9 days	7.3 days	5.4 days	1%	0%								
CC(=O)N1CCC2(CC1)OOC1(O2)C2CC3CC(C2)CC1C3 (centres unmarked) [OZ49]	0.93 ng/mL (≈ 3.03 nM)	0.82 ng/mL (≈ 2.67 nM)	81%	85%		6.7 days	7.3 days		17%	10%								
O=S1(=O)CCC2(CC1)OOC1(O2)C2CC3CC(C2)CC1C3 (centres unmarked) [OZ50]	1.2 ng/mL (≈ 3.82 nM)	1.1 ng/mL (≈ 3.5 nM)	77%	97%	57%	7.0 days	7.3 days	5.7 days	12%	4%								
c1ccc(C2CCC3(CC2)OOC2(O3)C3CCCC2CCC3)cc1 (centres unmarked) [OZ67]	>100/>100 ng/ml	>100/>100 ng/ml	0/NA/0%	0/NA/0%		5.0/NA/5.0 days	5.0/NA/5.0 days		38%	0%								
CC1(C)COC2(CCC3(CC2)OOC2(O3)C3CCCC2CCC3)OC1 (centres unmarked) [OZ68]	49 ng/mL (≈ 139 nM)	41 ng/mL (≈ 116 nM)	1%	6%		5.0 days	5.3 days		17%	0%								
O=C(O)C1CCC2(CC1)OOC1(O2)C2CC3CC(C2)CC1C3 (centres unmarked) [OZ72]	13 ng/mL (≈ 42.2 nM)	15 ng/mL (≈ 48.6 nM)								10%	97%	95%	7.7 days	6.7 days				
OC1(c2ccc(F)cc2)CCC2(CC1)OOC1(O2)C2CC3CC(C2)CC1C3 (centres unmarked) [OZ76]	3.0 ng/mL (≈ 8.01 nM)	1.7 ng/mL (≈ 4.54 nM)	49%	94%		6.3 days	8.0 days		32%	0%								
CCS(=O)(=O)N1CCC2(CC1)OOC1(O2)C2CC3CC(C2)CC1C3 (centres unmarked) [OZ79]	0.81 ng/mL (≈ 2.27 nM)	0.38 ng/mL (≈ 1.06 nM)	85%	99.94%		7.0 days	9.3 days		4%	0%								
c1ccc(C2(c3ccccn3)OOC3(O2)C2CC4CC(C2)CC3C4)nc1 (centres unmarked) [OZ81]	>100/>100 ng/ml	>100/>100 ng/ml	0/NA/0%	0/NA/0%		5.3 days	5.0 days		28%	0%								
O=C(CO)N1CCC2(CC1)OOC1(O2)C2CC3CC(C2)CC1C3 (centres unmarked) [OZ83]	0.60 ng/mL (≈ 1.86 nM)	0.30 ng/mL (≈ 0.928 nM)	92%	99.8%	78%	7.0 days	8.0 days	6.3 days	7%	19%								
O=[N+]([O-])c1cccc(C2(c3cccc([N+](=O)[O-])c3)OOC3(O2)C2CC4CC(C2)CC3C4)c1 (centres unmarked) [OZ105]		5.4 ng/mL (≈ 12.3 nM)	16%	28%	0%	5.7 days	6.3 days	5.7 days	8%	0%								
NC(=O)OC1CCC2(CC1)OOC1(O2)C2CC3CC(C2)CC1C3 (centres unmarked) [OZ107]	0.30 ng/mL (≈ 0.928 nM)	1.0 ng/mL (≈ 3.09 nM)	70%	99.74%	32%	6.3 days	8.0 days	6.3 days	26%	4%								
NC1(C(=O)NC[C@H]2CC[C@]3(CC2)OO[C@]2(O3)C3CC4CC(C3)CC2C4)CCCCC1 [OZ333]	0.44 ng/mL (≈ 1.05 nM)	0.24 ng/mL (≈ 0.573 nM)													96%	99.86%	9.2 days	
NOC[C@H]1CC[C@]2(CC1)OO[C@]1(O2)C2CC3CC(C2)CC1C3 [OZ334]	20 ng/mL (≈ 64.6 nM)	28 ng/mL (≈ 90.5 nM)													13%	47%	6.8 days	
NNC(=O)C[C@H]1CC[C@]2(CC1)OO[C@]1(O2)C2CC3CC(C2)CC1C3 [OZ340]	2.9 ng/mL (≈ 8.62 nM)	4.9 ng/mL (≈ 14.6 nM)													36%	93%	9.2 days	
NC(=O)[C@@H]1CCCN1C(=O)C[C@H]1CC[C@]2(CC1)OO[C@]1(O2)C2CC3CC(C2)CC1C3 [OZ346]	4.7 ng/mL (≈ 11.2 nM)	3.8 ng/mL (≈ 9.08 nM)													51%	85%	8.8 days	7.6 days
C1C2CC3CC1CC(C2)[C@]31OO[C@@]2(CC[C@H](Cc3nnn[nH]3)CC2)O1 [OZ363]	55 ng/mL (≈ 159 nM)	46 ng/mL (≈ 133 nM)													10%	40%	6.8 days	6.0 days
O=C([C@H]1CC[C@]2(CC1)OO[C@]1(O2)C2CC3CC(C2)CC1C3)N1CCNCC1 [OZ368]	0.43 ng/mL (≈ 1.14 nM)	0.63 ng/mL (≈ 1.67 nM)													99%	99.94%	9.0 days	9.2 days
